Laboratory results published in the METLIN SMRT retention time set (Domingo-Almenara et al. 2019).

Assay: gradient 5% acetonitrile 3 min, to 50% in 2 min, to 85% in 15 min, held 3 min, 100 µL/min
Settings: column: Zorbax Extend-C18 2.1 x 50 mm; eluents: water / acetonitrile, 0.1% formic acid
How it was run: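 The mobile phases were water and acetonitrile, each with 0.1% formic acid, pumped at 100 μL/min through a Zorbax Extend-C18 column (2.1 × 50 mm, 1.8 μm). Pure standards were injected as mixtures of ~100 molecules and detected by a quadrupole time-of-flight mass spectrometer in positive and negative ionization mode. Retention time came from computationally picked adduct peaks, each inspected by hand.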

RP-LC retention time [s]	SMILES
741	Cc1cc(C)n(CC(=O)N2CCCCC2c2nc(C3CC3)no2)n1 (stereo not given)
756	Cc1cc(=O)n(CC(=O)NCc2ccc(F)cc2F)c(N2CCOCC2)n1
893	Cc1ccc(CNC(=O)C2CCCN(C(=O)c3[nH]c(C)c(C(=O)OC(C)C)c3C)C2)cc1 (stereo not given)
936	O=C(CCn1nnc2cc(-c3noc(-c4ccc(Cl)cc4)n3)ccc21)N1CCOCC1
626	CCCc1noc(-c2cccn3c(CC(=O)N4CCOCC4)nnc23)n1
819	Cn1cccc1C(=O)Nc1cnn(-c2ncc(N3CCCCC3)cn2)c1
627	Cn1cnc(S(=O)(=O)N2CCC(c3noc(-c4cccnc4)n3)C2)c1 (stereo not given)
657	Cc1cc(=O)n(CC(=O)N(C)c2ccccc2)c(N2CCOCC2)n1
770	COc1ccc(S(=O)(=O)N2CCN(c3cc(C)nc(NC4CCCCC4)n3)CC2)cc1
716	CCCn1c(C2CCN(C(=O)c3sccc3C)C2)nc2cccnc21 (stereo not given)
692	Cc1nn2c(S(=O)(=O)N3CCC4(CC3)OCCO4)c(C)nc2s1
794	COc1ccc(C2Nn3c(C)nnc3SC2C(=O)N2CCCCCC2)cc1Br (stereo not given)
624	Cn1c(=O)c(SCC(=O)NC2CCN(Cc3ccccc3)CC2)nc2ccccc21
717	CCc1ccccc1NC(=O)Nc1cccc(-c2ccc(N3CCOCC3)nn2)c1
621	COc1ccc(-c2nnc(N3CCC(C(=O)NC(C)c4ccccn4)CC3)o2)cc1 (stereo not given)
757	CC1CCN(c2ncc3c(n2)CCN(Cc2ccc(N(C)C)cc2)C3)CC1
936	CCOC(=O)C1CCN(C(=O)C2CCN(S(=O)(=O)c3cc(Cl)ccc3OCC)CC2)CC1
598	O=C(CC1CCN(C(=O)NC2CCCCC2)CC1)N1CCN(c2ccccn2)CC1
767	O=C(C1CCOC1)N1CCCn2nc(-c3ccc(Cl)cc3)cc2C1 (stereo not given)

RP-LC retention time [s]	SMILES
562	Cc1oncc1CN1CCN(C(=O)c2c(F)cccc2F)CC1
572	Cc1cc(N2CCCC2)n2nc(CN3CCC4(CC3)OCCO4)nc2n1
817	Cc1ccc(CN2CCN(C3CCN(C(=O)Nc4ccc(C)c(F)c4)CC3)C(=O)C2=O)cc1
599	O=C(NCCN1CCOCC1)c1cccc(Nc2c(-c3ccc(Cl)cc3)nc3cnccn23)c1
557	Cc1nc2cc(N3CCCC(C(=O)NCCN4CCOCC4)C3)cnc2nc1C (stereo not given)
760	CC(C)(C)OC(=O)N1CCN(c2ncc(C(=O)Nc3ccccc3)c(N)n2)CC1
717	O=C(NCC1CCOCC1)c1nccc2ccccc12
664	CC1CCN(CC2CCN(S(=O)(=O)c3ccccc3Cl)CC2)CC1
912	CC1CCN(C(=O)c2cn(-c3ccc(-c4nc(C5CC5)no4)cn3)cn2)CC1
742	Cc1oc(-c2[nH]ncc2C(=O)N2CCOCC2)cc1S(=O)(=O)NCC1CCCCC1
775	COCc1nn(CC2CC2)c2c1CN(C(=O)c1ccc(C)s1)CC2
710	Cc1ccsc1C(=O)N1CC[C@@H](n2c(=O)n(C)c3cccnc32)C1
850	Cc1ccc(NC(=O)C2CCCN(S(=O)(=O)c3cn(C(C)C)cn3)C2)c(Br)c1 (stereo not given)
538	CCNc1cc(N2CCC(CCC(=O)NCCC(C)C)CC2)ncn1
718	O=C(CC1CCN(C(=O)c2ccc3oc(-c4ccccc4)nc3c2)CC1)NCC1CCCO1 (stereo not given)
623	O=C(NCCn1cnc2cc(C(=O)N3CCCC3)ccc21)Nc1cccc(Br)c1
1190	Cc1nn(-c2ccc(F)cc2)c2nc(N3CCCC(C(=O)NCc4ccc(Cl)cc4)C3)sc12 (stereo not given)
732	CCOc1ccc(CCNC(=O)c2nc(N3CCCC3)c3ccccc3n2)cc1OCC

Second part, the compound before the results:

SMILES	RP-LC retention time [s]
Cc1ccc(OCc2ccc(-c3nc(C#N)c(NCCCN(C)C)o3)o2)cc1	717
CCCNS(=O)(=O)c1cc(-c2nnc(-c3ccccc3)o2)ccc1OC	891
Cc1cc(C#N)cc(C)c1Oc1nc(Nc2ccc(C#N)cc2)nc(N)c1Br	1100
C1CCCC(NC2=NCCO2)CCC1	680
Cc1ccccc1Nc1c(-c2ccc(Cl)cc2)nc2ccccn12	804
COc1cc(OC)c(NC(=O)CN2C(=O)CN(C)C(=O)c3ccccc32)cc1Cl	719
COc1ccc(CNC(=O)c2cc3c(s2)CCN(C(C)=O)C3)cc1	696
CCOc1ccc2nc(NC(=O)COc3nccc(C)n3)sc2c1	744
Cc1ccc(-c2ncccc2CNS(=O)(=O)c2ccc(F)cc2)cc1	707
COc1ccc(CCC(=O)NC2CCN(c3nnc4ccc(C(F)(F)F)cn34)CC2)cc1	767
COc1ccc(CCNC(=O)CN2C(=O)c3cccc4cccc(c34)C2=O)cc1OC	725
CCCCNC(=O)C1CCC(=O)N(c2ccc(OC)cc2)C1c1ccc(OC)c(OC)c1 (stereo not given)	658
O=C(Cn1c(=O)c2cc(C3CC3)nn2c2ncccc21)Nc1cccc(Cl)c1	848
COc1ccccc1CNC(=O)c1nc2cccnc2n(CC(C)C)c1=O	976
O=C1NC(C(=O)NCc2ccccn2)Cn2cccc21 (stereo not given)	541
CC(C)c1nc(-c2ccc(C(=O)NCc3noc(COc4ccccc4)n3)cc2)no1	998
Cc1cc(N(C)C)n2nc(-c3ccc(Cl)cc3)c(C)c2n1	744
CCc1noc2nc(C)n(CC(=O)NCCCc3ccccc3)c(=O)c12	832
CCOc1ccccc1NC(=O)Cn1cccc(-c2nc(-c3ccc(Br)cc3)no2)c1=O	1100
CCCCN(C)C(=O)c1ccc2c(c1)N(CCC)C(=O)C1CCC(=O)N21 (stereo not given)	759
CCC(=O)Nc1ccc(CCc2nc3ccc(C(=O)NCc4ccc5c(c4)OCO5)cc3[nH]2)cc1	644
Cc1ccc2nc(C(=O)NCc3ccc(F)cc3)cn2c1	645
COc1ccc(C2(C(=O)NCC34CCCC=C3NC(=O)CC4)CC2)cc1 (stereo not given)	776
CCSc1ccccc1C(=O)NCC1CCN(C(=O)Oc2ccccc2)CC1	863
Cc1ccc(C2Cn3nc(-c4nc(-c5ccccc5)no4)cc3CO2)cc1 (stereo not given)	1260
CC(C)CNC(=O)CCc1nc2ccccc2n(CC(=O)NCCCc2ccccc2)c1=O	834
O=C(Nc1ccccc1F)N1CC(F)(F)C[C@H]1CN1CCCC1	620

SMILES	RP-LC retention time [s]
CCCNc1nc(-c2nnc(-c3cccc(C)c3)o2)nc2ccccc12	1000
COCc1cc2nn(CC(=O)Nc3ccc(C)cc3)c(=O)n2c(-c2ccccc2)n1	838
COc1ccc(N(CC(O)CNCCC(C)C)S(=O)(=O)c2ccc(C)cc2)cc1 (stereo not given)	620
COc1ccccc1-n1ccn2cc(-c3ccc4c(c3)OCO4)nc2c1=O	776
CCOC(=O)c1ccc(Nc2c(-c3ccc(N(C)C)cc3)nc3cnccn23)cc1	827
Cc1cc(C)n(-c2cc(NCCNC(=O)c3c[nH]c4ccccc34)nc(C)n2)n1	630
CN(C)C(=O)CN1C(=O)CCSc2ccccc21	665
Cc1ccccc1Cn1cc(-c2ccncc2)cc1C(=O)NCc1ccccc1	735
COc1ccc(-c2ncc3c(n2)CCN(C(=O)c2ccc(Cl)cc2)C3)cc1	969
COc1ccc(OC)c(NC(=O)c2cc(C3CC3)[nH]n2)c1	775
CC1CN(c2nc3ccccc3nc2C(C#N)C(=O)OCc2ccccc2)CC(C)O1 (stereo not given)	1140
CCOC(=O)N1CCC(NS(=O)(=O)C2CC2)CC1	632
COc1ccccc1NC(=O)N(C)CCc1noc(COc2ccc(F)cc2)n1	907
COc1ccc(-c2cc3c(=O)n(CC(=O)N4CCN(c5ccccn5)CC4)nc(C)n3n2)cc1	663
CCc1nn2c(CNS(=O)(=O)c3ccc4c(c3)CCC4)c(-c3ccccc3)nc2s1	1020
Cc1sc(NC(=O)Cc2csc(-c3ccccc3)n2)nc1-c1cccc(Cl)c1	1270
Cc1ccc2c(C(=O)NCc3ccccc3C)cc(NC(=O)C(C)C)cc2n1	671
COc1ncccc1C(=O)NCc1nnc(C)o1	579
CCCC(=O)Nc1nnc(SCc2nnc(-c3ccccc3)o2)s1	779
COc1ccc(C2Cn3nnc(-c4nc(-c5ccc(OC(F)(F)F)cc5)no4)c3CO2)cc1 (stereo not given)	1240
CS(=O)(=O)c1ccc([C@@H](O)[C@@H](CF)NC(=O)C(Cl)Cl)cc1	723
O=C1CCCCC(C(=O)N2CCCCC2)N1 (stereo not given)	641
O=C(NCc1ccc(F)cc1)N1CCc2nc(-c3ccccc3)ncc2C1	874
COCCN1CCC(N2CCN(S(=O)(=O)c3ccc(C(F)(F)F)cc3)CC2)C1=O (stereo not given)	625
COc1ccc(-c2c(C)noc2NC(C)=O)cc1S(=O)(=O)Nc1cc(OC)c(OC)c(OC)c1	687
CCNC(=O)c1sc2nc(-c3ccc(OC)cc3)c(NCCOC)n2c1C	704
